The source of these data is US8722654B2, “Lipoxin analogs as novel inhibitors of angiogenesis” (The Brigham and Women's Hospital, Inc., priority 2001, dated 2014).

Common to all, as to format: in vivo, BALB/c mice
In one assay the test system is inflamed corneas. The assay is described as follows: Neutrophil and macrophage infiltration in suture-inflamed corneas. As for the experimental part: (§1) Six to eight-week-old male BALB/c (Taconic Farms, Germantown, N.Y.) mice were used in all experiments. All experimental protocols were approved by the Schepens Eye Research Institute Animal Care and Use Committee, and all animals were treated according to the Association for Research in Vision and Ophthalmology Statement for the Use of Animals in Ophthalmic and Vision Research.
The standard model for induction of inflammatory corneal NV is associated with development of intrastromal vessels in close association with a mixed-cell (primarily neutrophilic) infiltrate. (43,44) Three interrupted sutures (11-0 nylon, Sharpoint; Vanguard, Houston, Tex.) were placed intrastromally with two stromal incursions extending over 120° of the corneal circumference each to induce inflammatory corneal NV, which is also associated with significant LA, as described previously. (43) The corneas were followed by slit-lamp biomicroscopy for corneal NV development. NV was graded between 0 and 3, with increments of 0.5, using a grid system per each corneal quadrant based on the centripetal extent of the neovascular branches from the limbus. Scores for each quadrant then summed to derive the NV index (range 0 to 12) for each eye, as previously described. (43)
BALB/c mice were randomized to receive ATLa, or vehicle (normal saline) by subconjunctival injection in a masked fashion after suture or hydron pellet placement. The compounds were administered at a dose of 100 ng/10 μl per mouse every 48 h after suture or pellet placed. ATLa was synthesized as described previously. (49) The physical properties were monitored routinely via LC/MS/MS matching the reported biological and physical properties prior to analysis in present experiments.
Full thickness corneal tissue or 8 μm-frozen sections were fixed in acetone for 15 minutes at room temperature. To block non-specific staining, anti-FcR mAb ([…], FcγIII/II receptor) or 10% goat serum was used before primary antibodies or isotype-matched control antibodies were applied at 4° C. overnight. Thereafter, samples were incubated with secondary antibodies at RT. Each step was followed by three thorough washings in PBS for 5-10 minutes. Finally, the samples were covered with mounting medium (Vector Laboratories, Burlingame, Calif.) and analyzed by epifluorescence microscopy (Eclipse E800; Nikon, Tokyo, Japan). The following antibodies were used: FITC-conjugated rat anti-mouse CD31 (Santa Cruz Biotechnology, Santa Cruz, Calif.), purified rat anti-mouse neutrophil (NIMP-R14, Abcam, Cambridge, Mass.), purified rat anti-mouse F4/80 (Novus Biologicals, Littleton, Colo.) and purified rabbit anti-mouse LYVE-1 (Abcam, Cambridge, Mass.). The secondary antibodies were Rodamine-conjugated donkey anti-rabbit IgG and Rodamine-conjugated goat anti-rat IgG (Santa Cruz Biotechnology, Santa Cruz, Calif.). Isotype controls included FITC-conjugated rat IgG2a, purified rat IgG2b, and purified rabbit IgG (Santa Cruz Biotechnology, Santa Cruz, Calif.).

The subject of the next assay is IL-1β. The assay is described as follows: IL-1β mRNA in inflamed corneas, real-time PCR. Conditions: vs vehicle-treated controls. As for the experimental part: (§2) The standard model for induction of inflammatory corneal NV is associated with development of intrastromal vessels in close association with a mixed-cell (primarily neutrophilic) infiltrate. (43,44) Three interrupted sutures (11-0 nylon, Sharpoint; Vanguard, Houston, Tex.) were placed intrastromally with two stromal incursions extending over 120° of the corneal circumference each to induce inflammatory corneal NV, which is also associated with significant LA, as described previously. (43) The corneas were followed by slit-lamp biomicroscopy for corneal NV development. […]
(§3) BALB/c mice were randomized to receive ATLa, or vehicle (normal saline) by subconjunctival injection in a masked fashion after suture or hydron pellet placement. […] (49) The physical properties were monitored routinely via LC/MS/MS matching the reported biological and physical properties prior to analysis in present experiments. […]
(§4) 1 μl of total cDNA, synthesized from 400 ng total RNA with random hexamers using Superscript™ III Reverse Transcriptase (Invitrogen, Carlsbad, Calif.), was loaded in each well and assays were performed in triplicates. […] The results were analyzed by comparative threshold cycle (CT) method. The relative expression level of each sample was expressed as fold change from normal control.

Another assay concerns TNF-α. Description: TNF-α mRNA in inflamed corneas, real-time PCR. As for the experimental part: as §2, §3, §4
On the technique in general: Quantitative PCR measures a nucleic acid by following its amplification.

Another assay relates to IL-1α. The assay is described as follows: IL-1α mRNA in inflamed corneas, real-time PCR. Conditions: 24 h and 72 h. As for the experimental part: as §2, §3, §4
A further assay deals with mouse IL-1 beta. Description: IL-1β protein in inflamed corneas, ELISA. As to the method:
FIG. 13, ATLa Regulates IL-1β. Mice were treated at 0 h and 48 h after suture-placement with ATLa or vehicle. Whole corneas were excised at 72 h, and subsequently freeze-thawed 3 times. Cornea was then homogenized using a pellet pestile motor with additional protease inhibitors. Homogenates were centrifuged at 12,000 rpm for 5 minutes and the supernatant was assayed for mouse IL-1 beta via ELISA (eBioscience, USA) according to the manufacturer's instructions.
as §2
(§5) BALB/c mice were randomized to receive ATLa, or vehicle (normal saline) by subconjunctival injection in a masked fashion after suture or hydron pellet placement. […] (49) The physical properties were monitored routinely via LC/MS/MS matching the reported biological and physical properties prior to analysis in present experiments.
A general note: An ELISA detects its analyte on a solid surface through an enzyme-linked reagent.

The test system of another assay is VEGF-A. Description: VEGF-A mRNA in inflamed corneas, real-time PCR. Conditions: 24 h and 72 h after suture placement. As for the experimental part:
as §2, §3, §4

The next assay relates to VEGF-C. Description: VEGF-C mRNA in inflamed corneas, real-time PCR. Conditions: 24 h and 72 h after suture placement. As for the experimental part: as §2, §3, §4
A further assay relates to VEGFR-2. The assay is described as follows: VEGFR-2 mRNA in inflamed corneas, real-time PCR. Conditions: 24 h and 72 h after suture placement. As for the experimental part: as §2, §3, §4
In another assay the test system is VEGF-D. The assay is described as follows: VEGF-D mRNA in inflamed corneas, real-time PCR. The note with it: vs vehicle-treated controls. As for the experimental part:
as §2, §3, §4

Another assay concerns VEGFR-3. Description: VEGFR-3 mRNA in inflamed corneas, real-time PCR. The note with it: vs vehicle-treated controls. As to the method:
as §2, §3, §4

Assay [1] has as its system suture-induced corneal NV. The assay is described as follows: Suture-induced inflammatory corneal angiogenesis (HA and LA). As to the method:
as §1, §2, §5
(§6) Full thickness corneal tissue or 8 μm-frozen sections were fixed in acetone for 15 minutes at room temperature. […] Finally, the samples were covered with mounting medium (Vector Laboratories, Burlingame, Calif.) and analyzed by epifluorescence microscopy (Eclipse E800; Nikon, Tokyo, Japan). […]
To quantify corneal angiogenesis, digital pictures of corneal flat-mounts were taken using an image analysis system (Spot Image Analysis, Diagnostic Instruments, Sterling Heights, Mich.). The areas covered by CD31^high/LYVE-1^−-vessels (blood vessels) or CD31^lowLYVE-1^high vessels (lymphatics) were measured morphometrically using NIH Image J software (version 1.34s; http://rsb.info.nih.gov/ij). […] The vessel density was calculated by the proportion of neovascularized area to the whole corneal area.

Assay [2] deals with VEGF-A-induced corneal HA and LA. Description: Corneal micropocket assay, VEGF-A pellet. Conditions: VEGF-A micropellet. As to the method:
(§7) The corneal micropocket assay in mice and quantification of the resultant NV has been described previously. (45,46) In brief, 0.3 μl of hydron pellets (IFN Sciences, New Brunswick, N.J.) containing 30 ng of murine IL-1β (R&D Systems, Minneapolis, Minn.) or 200 ng of VEGF-A (gift from BRB Preclinical Repository, National Cancer Institute) were prepared and implanted into the corneal stroma of male BALB/c mice. After 7 days the animals were sacrificed and the corneas were harvested for quantitative analysis of HA and LA.
as §5, §6
(§8) To quantify corneal angiogenesis, digital pictures of corneal flat-mounts were taken using an image analysis system (Spot Image Analysis, Diagnostic Instruments, Sterling Heights, Mich.). […]

Assay [3] concerns IL-1β-induced corneal HA and LA. The assay is described as follows: Corneal micropocket assay, IL-1β pellet. Conditions: IL-1β micropellet. As to the method: as §7, §5, §6, §8
The mark [4] stands for this setting: 72 h after suture placement, n=3.

With `COC(=O)CCC[C@H](O)[C@H](O)/C=C/C=C/C=C\C=C\[C@H](O)COc1ccc(F)cc1` [ATLa, 15-epi-16-(para-fluoro)-phenoxy-lipoxin A4 methyl ester], the “inhibition of neutrophils recruitment” value in the assay with inflamed corneas (24 and 72 h, 100 ng subconjunctival at 0 and 48 h) is on record as around 30%. Further, the neutrophils is 53±1 cells/section in the assay on inflamed corneas (24 h after suture placement, n=3) and 34±5 cells/section with inflamed corneas (setting [4]). Besides, the “reduction in macrophage infiltration” value in the assay with inflamed corneas (72 h, vs vehicle) was 25-40%. The molecule also displayed a macrophage with inflamed corneas (setting [4]) of 46±5 cells/section. For the same molecule, the “reduction in the increase of IL-1β expression levels” value in the assay on IL-1β is given as “more than 50%”. Moreover, the “increase in TNF-α expression” value in the assay on TNF-α (24 h) was “significantly suppressed”; in the assay on TNF-α (72 h), “not at 72 h”. Also, in the assay with IL-1α, the “expression of IL-1α” value is “not significantly altered”. The “IL-1 beta in corneas” value with mouse IL-1 beta (72 h, treated at 0 h and 48 h, n=4) is 21.3 ± 0.8 pg/mL. For the same molecule, the “decrease in IL-1β protein level” value with mouse IL-1 beta (vs vehicle-treated group) was found to be 70%. For the same molecule, the “mRNA expression of VEGF-A” value in the assay on VEGF-A was “lower mRNA expressions”. For the same molecule, the “mRNA expression of VEGF-C” value in the assay on VEGF-C is given as “lower mRNA expressions”. Moreover, in the assay with VEGFR-2, the “mRNA expression of VEGFR-2” value was “lower mRNA expressions”. Further, in the assay with VEGF-D, the “mRNA expression of VEGF-D” value is given as “not significantly altered”. For the same molecule, the “mRNA expression of VEGFR-3” value in the assay with VEGFR-3 is “not significantly altered”. Moreover, the “growth of corneal neovessels, slit lamp biomicroscopy” value in assay [1] (2-week time course) is reported as “significant suppression of the angiogenic response”. For the same molecule, the “density of lymphatic vessels” value in [1] (day 14, vs vehicle) is listed as “not observed”. The BV density in assay [1] (day 14 after suture placement, n=6) is 8.26±0.63%; in [2] (day 7, n=4) it was 5.9±0.4%; in assay [3] (day 7, n=4), 16.1±3.0%. Further, the LA entry in assay [2] (day 7) and in [3] (day 7) was “no significant reduction” in each case.
